In assay [1] the test system is myocardiale Radiocalciumaufnahme. As to the kind of experiment: Inhibition of isoprenaline-induced myocardial radiocalcium uptake in conscious rats after oral dosing (method of Arndts). Type of assay: in vivo, Ratten. The settings on record: Rattus norvegicus, oral dose that inhibits by 50 % the myocardial radiocalcium uptake caused by 30 mg/kg s.c. Isoprenalin, read-out: H50. An excerpt:
1. Bekanntlich ist der myocardiale Ca²⁺ Gehalt ein Maß für die hypoxische bzw. die durch toxische Catecholamindosen hervorgerufene Herzschädigung (Higgins et al. Mol. Cell. Cardiol. 10. 427-438, 1984; Nakanishi et. al., Am. J. Physiol. 242, 437-449, 1982; Fleckenstein A., Vorträge der Erlanger Physiol. Tagung 1970, Edit. Keidel, Springer Verl. Berlin; Heidelberg, New York, 1971). Umgekehrt ist die Inhibition der hypoxischen oder Isoprenalin-bedingten myocardialen Calciumaufnahme ein Maß für die cardioprotektive Effektivität von Calciumantagonisten (Fleckenstein s.o), von Calmodulinhibitoren (Higgins s.o.) und anderen Pharmaka, z.B. Betaadrenolytika (Arndts, Arzneimittelforschung, 25, 1279-1284 (1975)). Die cardioprotektive Wirkung wurde an wachen Ratten nach oraler Wirkstoffgabe anhand der von Arndts (s.o.) beschriebenen Methoden festgestellt und die Wirkungsstärke der Testsubstanzen als H₅₀-Werte angegeben; dieser Wert entspricht der Dosis, die die durch eine Gabe von 30 mg/kg s.c. Isoprenalin bedingte myocardiale Radiocalciumaufnahme bis 50 % hemmt. Hier erwiesen sich die vorliegenden Verbindungen als wirksamer als die bekannten Handelsprodukte Captopril und Enalapril. Die Ergebnisse sind in Tabelle I dargestellt.

The subject of assay [2] is ischämischen Langendorff-Herzen. As to the kind of experiment: Ischaemic Langendorff heart, recovery of regular contractions after reperfusion (in vitro or ex vivo). The following applies: ischaemic Langendorff hearts. The text has this:
Hieraus läßt sich eine protektive Wirksamkeit der Substanzen auf Herzschädigungen während Hypoxie oder Ischämie ableiten.

For another assay, the system named is Mäusen (ChbI:NMRI). Put plainly: Scopolamine test: passive avoidance reaction in mice. The format is in vivo. The text has this: Durch den cholinerg-muskarinen Antagonisten Scopolamin wird bei Mensch und Tier eine vorübergehende Störung des Überganges von Inhalten des Kurzzeitgedächtnisses in das Langzeitgedächtnis hervorgerufen. Die auch klinisch bei gesunden Probanden durch Scopolamin auslösbaren, mnestischen Störungen sind in ihrer Ausprägung den psychopathologischen Veränderungen bei Patienten mit organischem Hirnsyndrom ähnlich (Drachman & Leavitt, 1974).
Der Scopolamin-Test wird an Gruppen von jeweils 10 männlichen, nicht nüchternen, naiven Mäusen (ChbI:NMRI; Körpergewicht 35 g) mit Hilfe einer passiven Vermeidereaktion durchgeführt. Das Testgerät besteht aus einer Skinner Box (30 cm × 26 cm × 29 cm) mit einem elektrifizierbaren Gitterboden und einer Plastikplattform (5 cm × 5 cm) an einer Seitenwand. Die Tiere werden einzeln in die Skinner Box gesetzt. Nach einer Orientierungsperiode von 30 sec werden kurze, unterbrochene Stromstöße von ca. 0,8 mA so oft an den Gitterboden der Box gelegt, bis das Tier gelernt hat, daß das Aufsuchen und Verweilen auf der Plastikplattform vor dem Stromstoß Sicherheit gewährt. Tiere, welche dies innerhalb von 120 sec nicht lernen, werden nicht weiter verwendet. Die anderen Mäuse werden unmittelbar nach Erlernen der passiven Vermeidereaktion in drei Gruppen (10 Tiere pro Gruppe) eingeteilt. Eine Gruppe erhält Scopolaminhydrobromid (0,6 mg/kg s.c.) und oral Vehikel (0,5 % Tylose); die zweite Gruppe Scopolaminhydrobromid sowie die zu testende Substanz per os in 0,5 % Tylose und die dritte Gruppe lediglich 0,5 % Tylose p.o.. Eine Stunde nach Application wird jedes Tier einzeln auf die Plattform gesetzt, um das Erinnerungsvermögen an die erlernte Vermeidereaktion zu prüfen. Das Kriterium besteht in der Bestimmung, ob die Maus während mindestens 60 sec. auf der Plattform verbleibt (Ja-Antwort) oder nicht (Nein-Antwort).
Etwa 75% der Tiere, welche ausschließlich mit 0,5 % Tylose behandelt wurden, verbleiben bei der abschließenden Prüfung länger als 60 sec. auf der Plattform: ein Ergebnis, welches als Ausdruck des guten Erinnerungsvermögens an die erlernte Erfahrung gedeutet werden kann. Nach Gabe von Scopolamin und Tylose verbleiben durchschnittlich etwa 25 % der Tiere auf der Plattform; dies zeigt die erhebliche Beeinträchtigung des Erinnerungsvermögens nach Gabe von Scopolamin. Verbindungen der Formel I antagonisieren die Scopolaminwirkung statistisch signifikant. Zum Beispiel ist die oben genannte Verbindung A (N-[N-(1-L-Ethoxycarbonyl-3-phenylpropyl)-L-alanyl]-4,5,6,7-tetrahydro-thieno[2,3-c]-pyridin-7-L-carbonsäure) bei einer Dosis über 0,1 mg/kg p.o. (insbesondere ab 0,5 mg/kg p.o.) wirksam. In Gegensatz dazu sind Captopril bei Dosen von 10 und 30 mg/kg p.o. und Enalapril bei einer Dosis von 5 mg/kg p.o. unwirksam.

For assay [3], the system named is Ca²⁺-Influx durch K⁺ Depolarisation. As to the kind of experiment: Ca2+ influx by K+ depolarisation. The format is cell-based, Kaninchen. The following applies: Oryctolagus cuniculus; compound 10⁻⁵ mol/l; read-out: Hemmung des Ca²⁺-Influx durch K⁺ Depolarisation. The text has this:
(§1) 2. In einer weiteren Testanordnung wurde die Wirkung und der Mechanismus der Verbindungen auf die Ca²⁺-Fluxe wie folgt nachgewiesen: Die Bestimmung des Ca²⁺-Efflux wurde nach der Methode von C. van Breemen, P. Aarsonson, R. Loutzenheiser und K. Meisheri (Chest 78, 157S-165S (1980) und von R. Casteels und G.Droogman (J.Physiol. 317, 263-276 (1981)) durchgeführt. Mit dem Ca²⁺-Efflux wird die intrazelluläre Ca²⁺-Freisetzung auf eine Rezeptorstimulation gemessen. Damit ist eine quantitative Beurteilung des Ausmaßes der Rezeptor-vermittelten Wirkung möglich.
(§2) Untersuchungen zum Ca²⁺-Efflux an der Kaninchen-Aorta ergaben, daß die Verbindungen der Formel I den durch Kaliumionen und Noradrenalin stimulierten Ca²⁺-Efflux hemmen.
(§3) Versuche mit der oben genannten Verbindung A (N-[N-(1-L-Ethoxycarbonyl-3-phenylpropyl)-L-alanyl]4,5,6,7-tetrahydro-thieno[2,3-c]pyridin-7-L-carbonsäure ergaben: Die Hemmung des durch 10⁻⁵ mol/l Noradrenalin stimulierten Ca²⁺ Efflux liegt bei 25, 24 und 30 % mit der oben angeführten Verbindung A in den entsprechenden Konzentrationen 10⁻⁶, 10⁻⁵ und 10⁻⁴ mol/l. Das weist auf eine grundsätzlich nur partielle Hemmung hin. Der Ca²⁺-Influx durch K⁺ Depolarisation wird zu 38% gehemmt (10⁻⁵ mol/l der Verbindung A).

Assay [4] has as its system Ca²⁺-Efflux an der Kaninchen-Aorta. Put plainly: Stimulated Ca2+ efflux in rabbit aorta (method of van Breemen et al. / Casteels and Droogman). Type of assay: cell-based. The settings on record: Oryctolagus cuniculus, read-out: Hemmung des durch 10⁻⁵ mol/l Noradrenalin stimulierten Ca²⁺ Efflux.
From the text: as §1, §2, §3

Structures are written as SMILES.

Turning to `C[C@H](N[C@@H](CCc1ccccc1)C(=O)O)C(=O)N1Cc2ccsc2C[C@H]1C(=O)O` [E, N-[N-(1-L-Carboxy-3-phenylpropyl)-L-alanyl]-4,5,6,7-tetrahydro-thieno[3,2-c]pyridin-6-L-carbonsäure], the ED50 in assay [1] worked out at 1.1 mg/kg.
As to `CCOC(=O)[C@H](CCc1ccccc1)N[C@@H](C)C(=O)N1CCC[C@H]1C(=O)O` [Enalapril, 1-N-[(S)-1-Ethoxycarbonyl-3-phenylpropyl]-S-alanyl-S-prolin], the ED50 in assay [1] was determined as 1.59 mg/kg. Besides, the “Wiederauftreten regelmäßiger Kontraktionen nach Reperfusion” value in assay [2] is reported as “deutlich schwächer”. Besides, the “Antagonismus der Scopolaminwirkung” value in the assay on Mäusen (ChbI:NMRI) (5 mg/kg p.o.) is given as “unwirksam”.
Consider `CC(CS)C(=O)N1CCC[C@@H]1C(=O)O` (stereo partly drawn) [Captopril, D-2-Methyl-3-mercaptopropanoyl-L-prolin], for which the ED50 in assay [1] stood at 1.52 mg/kg. In addition, the “Wiederauftreten regelmäßiger Kontraktionen nach Reperfusion” value in assay [2] is reported as “deutlich schwächer”. The “Antagonismus der Scopolaminwirkung” value in the assay with Mäusen (ChbI:NMRI) (10 mg/kg p.o.) and with Mäusen (ChbI:NMRI) (30 mg/kg p.o.) was “unwirksam” throughout.
On to `CCOC(=O)[C@H](CCc1ccccc1)N[C@@H](C)C(=O)N1CCc2ccsc2[C@H]1C(=O)O` [A, N-[N-(1-L-Ethoxycarbonyl-3-phenylpropyl)-L-alanyl]-4,5,6,7-tetrahydro-thieno[2,3-c]pyridin-7-L-carbonsäure], for which the figures for the inhibition at 10 µM in assay [3] and in assay [4] (compound 10⁻⁵ mol/l) were 38% and 24%, respectively. For the same compound, the ED50 in assay [1] was 0.63 mg/kg. In assay [2], the “Wiederauftreten regelmäßiger Kontraktionen nach Reperfusion” value is recorded as “zeitliche Verkürzung des Wiederauftretens regelmäßiger Kontraktionen”. In addition, the “Antagonismus der Scopolaminwirkung” value in the assay with Mäusen (ChbI:NMRI) (dose above 0,1 mg/kg p.o. (especially from 0,5 mg/kg p.o.)) is recorded as “wirksam”. Besides, the inhibition at 100 µM in assay [4] (compound 10⁻⁴ mol/l) came to 30%. Also, in assay [4] (compound 10⁻⁶ mol/l), the inhibition at 1 µM came to 25%.
Regarding `C[C@H](N[C@@H](CCc1ccccc1)C(=O)O)C(=O)N1Cc2nc[nH]c2C[C@H]1C(=O)O` [D, N-[N-(1-L-Carboxy-3-phenylpropyl)-L-alanyl]-4,5,6,7-tetrahydro-1H-imidazo[4,5-c]pyridin-6-L-carbonsäure], the ED50 in assay [1] came to 1.32 mg/kg.

For the origin of these results see patent publication EP0279357A2, “Composition for the treatment of coronary diseases or organic brain syndrome” (BOEHRINGER INGELHEIM KG, priority 1987, dated 1988).
